This note sets out measurements from US9555039B2, “Piperidine derivatives and compositions for the inhibition of nicotinamide phosphoribosyltransferase (NAMPT)” (Forma TM, LLC., priority 2011, dated 2017).

Test [1] concerns the target T1, Recombinant His-tagged NAMPT (Homo sapiens, UniProt P43490).
T1 construct: His; host or cells: E. coli
Description: Biochemical inhibition assay: NAMPT enzymatic reaction, NMN quantified by mass spectrometry. To be noted: 33 nM NAMPT, 1 μM NAM, 100 μM PRPP, 2.5 mM ATP, 30 minutes at room temperature; read-out: Biochem IC50. In a few lines:
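Reaction 30 min at room temperature with 1 μM NAM, 100 μM PRPP, 2.5 mM ATP (final), quenched with formic acid. NMN quantified by RapidFire electrospray MS, normalized to L-cystathionine; IC50 from percent inhibition versus DMSO.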

Test [2] concerns A2780 cells. Put plainly: In-vitro cell proliferation assay (SRB, 72 hours). Format: cell-based. To be noted: Homo sapiens, sulforhodamine B (SRB) assay. In a few lines:
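Viable cells measured by TCA fixation and SRB staining, absorbance 570 nm; % inhibition vs DMSO control after media-only background subtraction, interpolated between two bracketing concentrations.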

Molecules are shown by their SMILES.

T1 sequence (P43490 whole entry): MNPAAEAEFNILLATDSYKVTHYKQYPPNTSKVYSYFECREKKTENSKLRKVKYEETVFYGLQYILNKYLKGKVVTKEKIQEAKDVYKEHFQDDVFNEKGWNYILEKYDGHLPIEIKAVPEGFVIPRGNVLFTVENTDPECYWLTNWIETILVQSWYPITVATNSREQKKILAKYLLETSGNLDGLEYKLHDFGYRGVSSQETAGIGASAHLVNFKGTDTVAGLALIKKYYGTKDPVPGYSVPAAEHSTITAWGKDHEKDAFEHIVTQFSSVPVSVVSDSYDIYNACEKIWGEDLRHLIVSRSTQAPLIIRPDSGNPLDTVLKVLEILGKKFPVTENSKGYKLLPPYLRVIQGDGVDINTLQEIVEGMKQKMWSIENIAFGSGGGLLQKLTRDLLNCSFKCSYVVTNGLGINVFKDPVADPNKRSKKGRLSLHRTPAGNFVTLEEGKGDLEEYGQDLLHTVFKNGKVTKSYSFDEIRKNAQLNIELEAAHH

In general, IC50 refers to the concentration needed to halve the response being measured. In the case of `O=C(NCCCCC1CCN(S(=O)(=O)c2cccnc2)CC1)c1cc2cnccc2[nH]1` [N-{4-[1-(pyridine-3-sulfonyl)piperidin-4-yl]butyl}-1H-pyrrolo[3,2-c]pyridine-2-carboxamide], the IC50 is 16.1 nM in test [1] and 13.9 nM in test [2].
For `Cn1cc(CC(=O)N2CCC(CCCCNC(=O)c3cc4cnccc4[nH]3)CC2)c2ccccc21` [N-(4-{1-[2-(1-methyl-1H-indol-3-yl)acetyl]piperidin-4-yl}butyl)-1H-pyrrolo[3,2-c]pyridine-2-carboxamide] the same measures were 9.1 nM and 11.2 nM.
The corresponding values for `COc1cc(OC)cc(C(=O)N2CCC(CCCCNC(=O)c3cc4ccncc4s3)CC2)c1` [N-(4-{1-[(3,5-dimethoxyphenyl)carbonyl]piperidin-4-yl}butyl)thieno[2,3-c]pyridine-2-carboxamide] are 57.1 nM and 20.2 nM.
`CCOc1ccccc1C(=O)N1CCC(CCCCNC(=O)c2cc3ccncc3s2)CC1` [N-(4-{1-[(2-ethoxyphenyl)carbonyl]piperidin-4-yl}butyl)thieno[2,3-c]pyridine-2-carboxamide]: the IC50 in test [1] turned out to be 4 nM; in test [2], 0.6 nM.
For `CC(C)c1ccc(C(=O)N2CCC(CCCCNC(=O)c3cc4ccncc4s3)CC2)cn1` [N-[4-(1-{[6-(propan-2-yl)pyridin-3-yl]carbonyl}piperidin-4-yl)butyl]thieno[2,3-c]pyridine-2-carboxamide] the same measures were 138 nM and 100 to 1000 nM.
For `O=C(NCCCCC1CCN(C(=O)c2ccc(Cl)cc2)CC1)c1cc2ccncc2s1` [N-(4-{1-[(4-chlorophenyl)carbonyl]piperidin-4-yl}butyl)thieno[2,3-c]pyridine-2-carboxamide] the same measures were 22.8 nM and 1000 to 10000 nM.
With `O=C(NCCCCC1CCN(C(=O)c2ccc3ncsc3c2)CC1)c1ccc2nccn2c1` [N-(4-{1-[(1,3-benzothiazol-6-yl)carbonyl]piperidin-4-yl}butyl)imidazo[1,2-a]pyridine-6-carboxamide], the IC50 in test [1] came out at 23.7 nM; in test [2] it was 39.3 nM.
The corresponding values for `CC(C)Oc1ccc(C(=O)N2CCC(CCCCNC(=O)c3cc4cnccc4[nH]3)CC2)cc1` [N-[4-(1-{[4-(propan-2-yloxy)phenyl]carbonyl}piperidin-4-yl)butyl]-1H-pyrrolo[3,2-c]pyridine-2-carboxamide] are 93.7 nM and 13.1 nM.
For the molecule `O=C(NCCCCC1CCN(S(=O)(=O)c2ccc(C(F)(F)F)cc2)CC1)c1cc2cnccc2[nH]1` [N-[4-(1-{[4-(trifluoromethyl)benzene]sulfonyl}piperidin-4-yl)butyl]-1H-pyrrolo[3,2-c]pyridine-2-carboxamide], the IC50 in test [1] is 74.8 nM; in test [2] it was 23.3 nM.
The corresponding values for `O=C(NCCCCC1CCN(C(=O)c2ccc(OC(F)F)cc2)CC1)c1cc2cnccc2[nH]1` [N-[4-(1-{[4-(difluoromethoxy)phenyl]carbonyl}piperidin-4-yl)butyl]-1H-pyrrolo[3,2-c]pyridine-2-carboxamide] are 183 nM and 31.4 nM.
Consider `O=C(NCCCCC1CCN(C(=O)c2ccc(C(F)(F)F)cc2)CC1)c1cc2ccncc2s1` [N-[4-(1-{[4-(trifluoromethyl)phenyl]carbonyl}piperidin-4-yl)butyl]thieno[2,3-c]pyridine-2-carboxamide], for which the IC50 in test [1] is 305 nM; in test [2], 1000 nM.
For `O=C(NCCCCC1CCN(C(=O)c2cc(Cl)ccc2Cl)CC1)c1ccc2nccn2c1` [N-(4-{1-[(2,5-dichlorophenyl)carbonyl]piperidin-4-yl}butyl)imidazo[1,2-a]pyridine-6-carboxamide] the same measures were 10.2 nM and 5.5 nM.
For the molecule `COc1cccc(C(=O)N2CCC(CCCCNC(=O)c3ccc4nccn4c3)CC2)c1OC` [N-(4-{1-[(2,3-dimethoxyphenyl)carbonyl]piperidin-4-yl}butyl)imidazo[1,2-a]pyridine-6-carboxamide], the 50% inhibitory concentration (IC50) in test [1] was 19.1 nM; in test [2] it was 2.9 nM.
On to `O=C(NCCCCC1CCN(C(=O)c2ccc(OC(F)(F)F)cc2)CC1)c1cc2ccncc2s1` [N-[4-(1-{[4-(trifluoromethoxy)phenyl]carbonyl}piperidin-4-yl)butyl]thieno[2,3-c]pyridine-2-carboxamide], for which the IC50 was 166 nM in test [1] and 100 to 1000 nM in test [2].
Regarding `COc1ccc(OC)c(C(=O)N2CCC(CCCCNC(=O)c3cc4ccncc4s3)CC2)c1` [N-(4-{1-[(2,5-dimethoxyphenyl)carbonyl]piperidin-4-yl}butyl)thieno[2,3-c]pyridine-2-carboxamide], the IC50 was found to be 5.5 nM in test [1] and 2.9 nM in test [2].
For `O=C(NCCCCC1CCN(S(=O)(=O)c2ccc(F)c(F)c2)CC1)c1cc2cnccc2[nH]1` [N-(4-{1-[(3,4-difluorobenzene)sulfonyl]piperidin-4-yl}butyl)-1H-pyrrolo[3,2-c]pyridine-2-carboxamide] the same measures were 34.6 nM and 22.8 nM.
For the molecule `COc1ncc(Cl)cc1C(=O)N1CCC(CCCCNC(=O)c2cc3cnccc3[nH]2)CC1` [N-(4-{1-[(5-chloro-2-methoxypyridin-3-yl)carbonyl]piperidin-4-yl}butyl)-1H-pyrrolo[3,2-c]pyridine-2-carboxamide], the figures for the IC50 in test [1] and in test [2] were 30.3 nM and 3.3 nM, respectively.
The corresponding values for `CC(C)c1ccc(C(=O)N2CCC(CCCCNC(=O)c3cc4cnccc4[nH]3)CC2)cn1` [N-[4-(1-{[6-(propan-2-yl)pyridin-3-yl]carbonyl}piperidin-4-yl)butyl]-1H-pyrrolo[3,2-c]pyridine-2-carboxamide] are 86.7 nM and 13.2 nM.
The corresponding values for `CSc1ncccc1C(=O)N1CCC(CCCCNC(=O)c2cc3cnccc3[nH]2)CC1` [N-[4-(1-{[2-(methylsulfanyl)pyridin-3-yl]carbonyl}piperidin-4-yl)butyl]-1H-pyrrolo[3,2-c]pyridine-2-carboxamide] are 8.3 nM and 0.7 nM.
For `O=C(NCCCCC1CCN(C(=O)c2ccc3cc[nH]c3c2)CC1)c1ccc2nccn2c1` [N-(4-{1-[(1H-indol-6-yl)carbonyl]piperidin-4-yl}butyl)imidazo[1,2-a]pyridine-6-carboxamide] the same measures were 29.8 nM and 14.9 nM.
As for `COc1cccc(OC)c1C(=O)N1CCC(CCCCNC(=O)c2ccc3nccn3c2)CC1` [N-(4-{1-[(2,6-dimethoxyphenyl)carbonyl]piperidin-4-yl}butyl)imidazo[1,2-a]pyridine-6-carboxamide], the 50% inhibitory concentration (IC50) is 28.6 nM in test [1] and 1 nM in test [2].
For `Cc1ccc(F)cc1C(=O)N1CCC(CCCCNC(=O)c2cc3ccncc3s2)CC1` [N-(4-{1-[(5-fluoro-2-methylphenyl)carbonyl]piperidin-4-yl}butyl)thieno[2,3-c]pyridine-2-carboxamide] the same measures were 4.5 nM and 1.8 nM.
With `O=C(NCCCCC1CCN(C(=O)c2ccccc2)CC1)c1cc2cnccc2[nH]1` [N-[4-(1-benzoylpiperidin-4-yl)butyl]-1H-pyrrolo[3,2-c]pyridine-2-carboxamide], the IC50 in test [1] was 8.1 nM; in test [2] it was 1.4 nM.
For `O=C(NCCCCC1CCN(C(=O)c2ccc(F)c(F)c2)CC1)c1cc2ccncc2s1` [N-(4-{1-[(3,4-difluorophenyl)carbonyl]piperidin-4-yl}butyl)thieno[2,3-c]pyridine-2-carboxamide] the same measures were 22.9 nM and 100 to 1000 nM.
